16 molecules from patent US9221795B2, “Phosphatidylinositol 3-kinase inhibitors” (Gilead Sciences, Inc., priority 2013, dated 2015) can be followed below.

Bounds are passed on as bounds.

In one series the target is PI3Kδ (Homo sapiens (Human), UniProt O00329). Put plainly: Enzymatic activity of PI3K isoforms, TR-FRET assay (PI3Kδ). Conditions: 2× Km ATP, geometric mean if more than one value. The series is classed as biochemical. The essentials: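 Recombinant heterodimeric PI3Kβ or PI3Kδ (25-50 pM) was run with 2 μM PIP2 and 2× Km ATP (75-500 μM) at pH 7.4, for 30 min at 25° C. PIP3 formation was detected by TR-FRET displacement of labeled PIP3 from Eu-GRP-1. IC50 values in nM come from four-parameter fits, as geometric means.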
PI3Kδ, sequence (O00329 whole entry, canonical isoform): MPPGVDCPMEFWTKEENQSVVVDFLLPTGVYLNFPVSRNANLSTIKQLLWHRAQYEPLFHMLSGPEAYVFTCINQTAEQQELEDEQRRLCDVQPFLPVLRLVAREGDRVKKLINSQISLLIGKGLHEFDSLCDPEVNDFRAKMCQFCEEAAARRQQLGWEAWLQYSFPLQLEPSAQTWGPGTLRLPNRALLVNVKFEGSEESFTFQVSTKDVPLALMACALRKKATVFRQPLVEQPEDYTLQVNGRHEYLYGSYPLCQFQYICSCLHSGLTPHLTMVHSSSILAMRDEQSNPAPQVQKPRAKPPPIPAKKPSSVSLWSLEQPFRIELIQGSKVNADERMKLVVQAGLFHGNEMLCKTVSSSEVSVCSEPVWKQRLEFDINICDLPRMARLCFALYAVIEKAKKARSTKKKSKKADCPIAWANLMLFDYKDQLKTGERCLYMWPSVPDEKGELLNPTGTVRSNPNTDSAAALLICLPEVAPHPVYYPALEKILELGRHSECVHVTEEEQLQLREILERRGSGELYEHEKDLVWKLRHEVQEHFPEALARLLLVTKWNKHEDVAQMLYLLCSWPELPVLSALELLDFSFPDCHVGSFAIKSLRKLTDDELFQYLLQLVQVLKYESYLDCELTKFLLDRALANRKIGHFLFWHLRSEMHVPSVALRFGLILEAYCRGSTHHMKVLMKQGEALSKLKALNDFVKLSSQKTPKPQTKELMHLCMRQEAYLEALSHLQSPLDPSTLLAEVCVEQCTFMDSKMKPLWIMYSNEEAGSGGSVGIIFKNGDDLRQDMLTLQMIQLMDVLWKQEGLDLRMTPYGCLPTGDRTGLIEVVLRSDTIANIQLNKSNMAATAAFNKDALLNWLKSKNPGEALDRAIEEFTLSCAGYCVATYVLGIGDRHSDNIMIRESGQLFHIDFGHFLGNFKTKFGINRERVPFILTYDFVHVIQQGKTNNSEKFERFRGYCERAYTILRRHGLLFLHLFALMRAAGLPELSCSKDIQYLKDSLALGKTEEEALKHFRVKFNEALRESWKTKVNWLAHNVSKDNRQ
PI3Kδ, sequence (P27986 whole entry partner, canonical isoform): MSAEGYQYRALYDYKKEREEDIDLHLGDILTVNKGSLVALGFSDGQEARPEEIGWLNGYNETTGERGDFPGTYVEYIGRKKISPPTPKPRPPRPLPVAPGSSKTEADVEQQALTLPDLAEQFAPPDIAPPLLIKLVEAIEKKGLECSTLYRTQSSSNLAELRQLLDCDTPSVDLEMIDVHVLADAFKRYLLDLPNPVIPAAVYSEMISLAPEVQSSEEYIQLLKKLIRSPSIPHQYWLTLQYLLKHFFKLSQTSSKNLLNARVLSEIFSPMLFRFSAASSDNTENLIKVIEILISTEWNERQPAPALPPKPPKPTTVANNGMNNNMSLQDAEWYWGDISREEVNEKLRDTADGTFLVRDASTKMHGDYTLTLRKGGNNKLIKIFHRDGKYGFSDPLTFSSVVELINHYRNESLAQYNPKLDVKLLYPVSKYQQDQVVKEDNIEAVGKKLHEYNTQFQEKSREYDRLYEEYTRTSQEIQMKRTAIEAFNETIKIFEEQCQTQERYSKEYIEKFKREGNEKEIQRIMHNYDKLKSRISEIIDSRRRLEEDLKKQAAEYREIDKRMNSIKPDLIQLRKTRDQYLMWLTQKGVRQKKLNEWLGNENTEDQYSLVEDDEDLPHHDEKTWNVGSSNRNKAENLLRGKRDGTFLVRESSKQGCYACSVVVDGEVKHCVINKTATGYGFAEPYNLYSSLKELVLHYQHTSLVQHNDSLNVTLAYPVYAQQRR

In the next series the target is PI3Kβ (Homo sapiens (Human), UniProt P42338). The series is described as follows: Enzymatic activity of PI3K isoforms, TR-FRET assay (PI3Kβ). The class given is biochemical. Conditions: 2× Km ATP, geometric mean if more than one value. On the procedure:
Enzymatic activity of the class I PI3K isoforms in the presence of the compounds of Table 1 and Compounds X, Y and Z was measured using a time-resolved fluorescence resonance energy transfer (TR-FRET) assay. The TR-FRET assay was used to monitor formation of the product 3,4,5-inositol triphosphate molecule (PIP3) as it competed with fluorescently labeled PIP3 for binding to the GRP-1 pleckstrin homology domain protein. An increase in […] product results in a decrease in TR-FRET signal as the labeled fluorophore is displaced from the GRP-1 protein binding site.
Class I PI3K isoforms were expressed and purified as heterodimeric recombinant proteins. All assay reagents and buffers for the TR-FRET assay were purchased from Millipore. PI3K isoforms were assayed under initial rate conditions in the presence of 25 mM Hepes (pH 7.4), and 2× Km ATP (75-500 μM), 2 μM PIP2, 5% glycerol, 5 mM MgCl2, 50 mM NaCl, 0.05% (v/v) Chaps, 1 mM dithiothreitol, 1% (v/v) DMSO at the following concentrations for each isoforms: PI3Kα, PI3Kβ, and PI3Kδ between 25 and 50 pM, and PI3Kγ at 2 nM. After an assay reaction time of 30 minutes at 25° C., reactions were terminated with a final concentration of 10 mM EDTA, 10 nM labeled-PIP3, and 35 nM Europium labeled GRP-1 detector protein before reading TR-FRET on an Envision plate reader (Ex: 340 nm; Em: 615/665 nm; […] delay and 500 μs read window).
Data were normalized based on positive ([…] wortmanin) and negative (DMSO) controls. α, β, δ, and γ IC50 values were calculated from the fit of the dose-response curves to a four-parameter equation. All IC50 values represent geometric mean values if more than one value was obtained. IC50 values were reported in units of nM.

A further series has as its system basophils. The series is described as follows: Basophil activation in human whole blood (Flow2 CAST kit, CD63 flow cytometry). The series is classed as cell-based. Conditions: human whole blood, basophils activated with anti-FcεRI mAb or fMLP, percent CD63 positive cells.
Series [1] in a line: Hepatocyte stability (parent drug disappearance in cryopreserved hepatocytes). The series is classed as in vitro ADME, human. Conditions: human, cryopreserved human hepatocytes, human hepatocytes, 2 μM substrate, 37° C. As for the experimental part:
This assay was used to evaluate the metabolic stability of test articles (TA) following incubation in cryopreserved hepatocytes by monitoring parent drug disappearance via LC/MC. The TA was incubated with 1 million hepatocytes/mL at 2 μM substrate in duplicate. The incubation was carried out at 37° C. with 5% CO2 and saturating humidity. Samples were taken at 0, 1, 2, and 4 hours to monitor the disappearance of TA and a half-life (t1/2) was determined. Table 3 below summarizes the human hepatocyte t1/2 values (hours) collected in the Example.

PI3Kβ, sequence (P42338 whole entry, the tested form may be a part, canonical isoform): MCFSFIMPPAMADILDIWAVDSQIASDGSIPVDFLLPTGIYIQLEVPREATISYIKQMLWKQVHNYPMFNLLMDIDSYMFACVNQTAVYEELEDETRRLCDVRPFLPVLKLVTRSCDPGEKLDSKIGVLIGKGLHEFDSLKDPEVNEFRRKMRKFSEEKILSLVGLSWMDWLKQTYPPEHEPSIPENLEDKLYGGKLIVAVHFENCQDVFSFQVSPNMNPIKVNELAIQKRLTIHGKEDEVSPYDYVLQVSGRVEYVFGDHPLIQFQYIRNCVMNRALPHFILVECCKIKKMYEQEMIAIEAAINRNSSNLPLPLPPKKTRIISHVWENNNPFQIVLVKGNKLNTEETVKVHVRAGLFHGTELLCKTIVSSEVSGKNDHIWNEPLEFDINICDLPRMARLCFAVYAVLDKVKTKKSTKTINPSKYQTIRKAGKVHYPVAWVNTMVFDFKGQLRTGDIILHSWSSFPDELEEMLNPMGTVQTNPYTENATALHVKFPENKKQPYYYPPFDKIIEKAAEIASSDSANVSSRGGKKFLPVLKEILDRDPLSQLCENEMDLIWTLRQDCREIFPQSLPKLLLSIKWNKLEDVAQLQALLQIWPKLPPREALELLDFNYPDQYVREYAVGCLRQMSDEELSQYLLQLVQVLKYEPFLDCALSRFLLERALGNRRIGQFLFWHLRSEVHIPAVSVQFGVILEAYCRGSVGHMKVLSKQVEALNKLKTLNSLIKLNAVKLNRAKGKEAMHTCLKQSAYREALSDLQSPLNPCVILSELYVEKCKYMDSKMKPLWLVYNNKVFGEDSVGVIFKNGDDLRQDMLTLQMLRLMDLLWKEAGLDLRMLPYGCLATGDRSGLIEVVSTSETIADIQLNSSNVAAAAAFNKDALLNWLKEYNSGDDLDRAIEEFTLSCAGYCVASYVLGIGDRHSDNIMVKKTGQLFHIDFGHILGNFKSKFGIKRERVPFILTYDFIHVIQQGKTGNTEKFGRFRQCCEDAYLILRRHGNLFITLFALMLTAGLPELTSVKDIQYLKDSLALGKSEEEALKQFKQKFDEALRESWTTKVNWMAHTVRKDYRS
PI3Kβ, sequence (P27986 whole entry partner, the tested form may be a part, canonical isoform): as the sequence (P27986 whole entry partner, canonical isoform) above

In the case of `Nc1ccc(-n2c([C@@H](Nc3nc(N)nc(N)c3Cl)C3CC3)nc3cccc(Cl)c3c2=O)cn1` [Compound 89, (S)-3-(6-aminopyridin-3-yl)-5-chloro-2-(cyclopropyl((2,6-diamino-5-chloropyrimidin-4-yl)amino)methyl)quinazolin-4(3H)-one], the half-maximal inhibitory concentration (IC50) against PI3Kδ was 9 nM; against PI3Kβ, 27 nM.
In the same order, the values of `CC[C@H](Nc1nc(N)nc(N)c1Cl)c1nc2cccc(Cl)c2c(=O)n1-c1ccc(N)nc1` [Compound 86, (S)-3-(6-aminopyridin-3-yl)-5-chloro-2-(1-((2,6-diamino-5-chloropyrimidin-4-yl)amino)propyl)quinazolin-4(3H)-one] are 9 nM and 35 nM.
Taken in the same sequence, the figures for `C[C@H](Nc1nc(N)nc(N)c1Cl)c1nc2c(Cl)ccc(Cl)c2c(=O)n1-c1ccc(N)nc1` [Compound 83, (S)-3-(6-aminopyridin-3-yl)-5,8-dichloro-2-(1-((2,6-diamino-5-chloropyrimidin-4-yl)amino)ethyl)quinazolin-4(3H)-one] were 12 nM and 42 nM.
On PI3Kδ, `N#Cc1c(N)nc(N)nc1N[C@H](c1nc2c(F)ccc(Cl)c2c(=O)n1-c1cccnc1)C1CC1` [Compound 27, (S)-2,4-diamino-6-((5-chloro-8-fluoro-4-oxo-3-(pyridin-3-yl)-3,4-dihydroquinazolin-2-yl)(cyclopropyl)methylamino)pyrimidine-5-carbonitrile] displayed an IC50 of 1 nM. Also, the EC50 with basophils (Homo sapiens, class symbol) is below 1 nM; in the series on basophils (Homo sapiens, geometric mean), 0.7 nM. The half-life at 2 μM in series [1] (class symbol) and in series [1] (Table 3) was above 10 h in each case.
With `Cc1ncccc1-n1c([C@H](C)Nc2nc(N)nc(N)c2C#N)nc2cccc(Cl)c2c1=O` (atropisomer, axis not shown) [Compound 39, (S)-2,4-diamino-6-(1-(5-chloro-3-(2-methylpyridin-3-yl)-4-oxo-3,4-dihydroquinazolin-2-yl)ethylamino)pyrimidine-5-carbonitrile], the IC50 at PI3Kδ turned out to be 1 nM. Besides, the EC50 with basophils (class symbol) was 1 to 10 nM; with basophils (geometric mean), 2 nM. For the same molecule, the half-life at 2 μM in series [1] (class symbol) was 3 to 6 h; in series [1] (Table 3), 3 h.
With `Cc1ncc(F)cc1-n1c([C@H](C)Nc2nc(N)nc(N)c2C#N)nc2cccc(Cl)c2c1=O` (atropisomer, axis not shown) [Compound 45, (S)-2,4-diamino-6-(1-(5-chloro-3-(5-fluoro-2-methylpyridin-3-yl)-4-oxo-3,4-dihydroquinazolin-2-yl)ethylamino)pyrimidine-5-carbonitrile], at PI3Kδ, inhibition was half-maximal at 6 nM (IC50). Also, the EC50 in the series with basophils (Homo sapiens, class symbol) is 1 to 10 nM; in the series on basophils (Homo sapiens, geometric mean) it was 7 nM. Also, the half-life at 2 μM was 3 to 6 h in series [1] (class symbol) and 4 h in series [1] (Table 3).
Take `Cc1ccncc1-n1c([C@H](C)Nc2nc(N)nc(N)c2C#N)nc2cccc(Cl)c2c1=O` (atropisomer, axis not shown) [Compound 41, (S)-2,4-diamino-6-(1-(5-chloro-3-(4-methylpyridin-3-yl)-4-oxo-3,4-dihydroquinazolin-2-yl)ethylamino)pyrimidine-5-carbonitrile]: 0.4 nM corresponded to half-maximal inhibition against PI3Kδ (IC50). Besides, the figures for the EC50 with basophils (class symbol) and in the series with basophils (geometric mean) were 1 to 10 nM and 4 nM, respectively. For the same molecule, the half-life at 2 μM in series [1] (class symbol) and in series [1] (Table 3) was above 10 h each time.
`Cc1cncc(-n2c([C@H](C)Nc3nc(N)nc(N)c3C#N)nc3c(F)ccc(Cl)c3c2=O)c1` [Compound 32, (S)-2,4-diamino-6-(1-(5-chloro-8-fluoro-3-(5-methylpyridin-3-yl)-4-oxo-3,4-dihydroquinazolin-2-yl)ethylamino)pyrimidine-5-carbonitrile]: 2 nM corresponded to half-maximal inhibition on PI3Kδ (IC50). In addition, the EC50 in the series on basophils (Homo sapiens, class symbol) is below 1 nM; in the series on basophils (Homo sapiens, geometric mean), 0.4 nM. The half-life at 2 μM in series [1] (class symbol) and in series [1] (Table 3) was above 10 h in each case.
Molecule `CC[C@H](Nc1nc(N)nc(N)c1C#N)c1nc2cccc(Cl)c2c(=O)n1-c1cccnc1` [Compound 2, (S)-2,4-diamino-6-(1-(5-chloro-4-oxo-3-(pyridin-3-yl)-3,4-dihydroquinazolin-2-yl)propylamino)pyrimidine-5-carbonitrile] displayed an IC50 against PI3Kδ of 2 nM. Also, the EC50 with basophils (Homo sapiens, class symbol) is 1 to 10 nM; with basophils (Homo sapiens, geometric mean), 2 nM. Further, the half-life at 2 μM in series [1] (class symbol) and in series [1] (Table 3) was above 10 h each time.
`C[C@H](Nc1nc(N)nc(N)c1C#N)c1nc2ccc(F)cc2c(=O)n1-c1cccnc1` [Compound 5, (S)-2,4-diamino-6-(1-(6-fluoro-4-oxo-3-(pyridin-3-yl)-3,4-dihydroquinazolin-2-yl)ethylamino)pyrimidine-5-carbonitrile]: the IC50 against PI3Kδ was 14 nM. The EC50 with basophils (Homo sapiens, class symbol) was 1 to 10 nM; in the series with basophils (Homo sapiens, geometric mean), 2 nM. Also, the half-life at 2 μM in series [1] (class symbol) and in series [1] (Table 3) was above 10 h each time.
As to `COc1cncc(-n2c([C@H](C)Nc3nc(N)nc(N)c3C#N)nc3cccc(Cl)c3c2=O)c1` [Compound 14, (S)-2,4-diamino-6-(1-(5-chloro-3-(5-methoxypyridin-3-yl)-4-oxo-3,4-dihydroquinazolin-2-yl)ethylamino)pyrimidine-5-carbonitrile], the IC50 against PI3Kδ stood at 4 nM. Besides, the EC50 was 1 to 10 nM in the series on basophils (Homo sapiens, class symbol) and 3 nM with basophils (Homo sapiens, geometric mean). The half-life at 2 μM was 6 to 10 h in series [1] (class symbol) and 8 h in series [1] (Table 3).
Taken in the same sequence, the figures for `CC[C@H](Nc1nc(N)nc(N)c1C#N)c1nc2cccc(Cl)c2c(=O)n1-c1cncc(F)c1` [Compound 20, (S)-2,4-diamino-6-(1-(5-chloro-3-(5-fluoropyridin-3-yl)-4-oxo-3,4-dihydroquinazolin-2-yl)propylamino)pyrimidine-5-carbonitrile] were 3 nM, 1 to 10 nM, 3 nM, above 10 h and above 10 h.
Taken in the same sequence, the figures for `Cc1cccc2nc([C@H](C)Nc3nc(N)nc(N)c3C#N)n(-c3cncc(F)c3)c(=O)c12` [Compound 11, (S)-2,4-diamino-6-(1-(3-(5-fluoropyridin-3-yl)-5-methyl-4-oxo-3,4-dihydroquinazolin-2-yl)ethylamino)pyrimidine-5-carbonitrile] were 0.8 nM, below 1 nM, 0.5 nM, 3 to 6 h and 5 h.
Taken in the same sequence, the figures for `CC[C@H](Nc1nc(N)nc(N)c1C#N)c1nc2c(F)ccc(Cl)c2c(=O)n1-c1cccnc1` [Compound 26, (S)-2,4-diamino-6-(1-(5-chloro-8-fluoro-4-oxo-3-(pyridin-3-yl)-3,4-dihydroquinazolin-2-yl)propylamino)pyrimidine-5-carbonitrile] were 1 nM, below 1 nM, 0.7 nM, above 10 h and above 10 h.
Consider `C[C@H](Nc1nc(N)nc(N)c1C#N)c1nc2cccc(Cl)c2c(=O)n1-c1cncc(F)c1` [Compound 12, (S)-2,4-diamino-6-(1-(5-chloro-3-(5-fluoropyridin-3-yl)-4-oxo-3,4-dihydroquinazolin-2-yl)ethylamino)pyrimidine-5-carbonitrile], for which the IC50 on PI3Kδ is 2 nM. Also, the EC50 with basophils (Homo sapiens, class symbol) was 1 to 10 nM; in the series on basophils (Homo sapiens, geometric mean), 1 nM. Moreover, the half-life at 2 μM in series [1] (class symbol) and in series [1] (Table 3) was above 10 h in each case.
On to `C[C@H](Nc1nc(N)nc(N)c1C#N)c1nc2cccc(C(F)(F)F)c2c(=O)n1-c1cccnc1` [Compound 9, (S)-2,4-diamino-6-(1-(4-oxo-3-(pyridin-3-yl)-5-(trifluoromethyl)-3,4-dihydroquinazolin-2-yl)ethylamino)pyrimidine-5-carbonitrile], for which the IC50 on PI3Kδ is 2 nM. Further, the EC50 is 1 to 10 nM in the series on basophils (Homo sapiens, class symbol) and 3 nM in the series on basophils (Homo sapiens, geometric mean). For the same molecule, the half-life at 2 μM in series [1] (class symbol) and in series [1] (Table 3) was above 10 h each time.
